Strand notation (5' to 3'): a small letter for the sugar, then the base; units joined by * are phosphorothioate-linked, units joined directly phosphodiester-linked; [ ] holds rarer units or linkages, { } end groups; capitals alone tell only the bases. e = 2'-O-(2-methoxyethyl) (MOE); [5mC] = 5-methylcytosine; d = 2'-deoxy (DNA)
What follows are substances tested on rat RANKL mRNA (assay: Antisense inhibition of rat RANKL mRNA levels in UMR-106 cells, quantitative real-time PCR (Table 3)). Details: averages from three experiments.
Type: cell-based
Set-up: concentration or dose not given beside the values
Experimental: Cells were seeded onto 24-well plates (Falcon-353047) at a density of […] for use in antisense oligonucleotide transfection.
Cells are treated and data are obtained in triplicate. […] Cells were harvested 16-24 hours after oligonucleotide treatment.
PCR reagents were obtained from Invitrogen Corporation, (Carlsbad, Calif.).
Probes and primers to rat RANKL were designed to hybridize to a rat RANKL sequence, using published sequence information (GenBank accession number NM_057149.1, incorporated herein as SEQ ID NO:18). For rat RANKL the PCR primers were: • forward primer: […] (SEQ ID NO:19) • reverse primer: […] (SEQ ID NO: 20) and the • PCR probe was: FAM-[…]-TAMRA (SEQ ID NO: 21) where FAM is the fluorescent reporter dye and TAMRA is the quencher dye. For rat GAPDH the PCR primers were: • forward primer: […](SEQ ID NO:22) • reverse primer: […](SEQ ID NO:23) and the • PCR probe was: 5′ JOE-[…]-TAMRA 3′ (SEQ ID NO: 24) where JOE is the fluorescent reporter dye and TAMRA is the quencher dye.
In accordance with the present invention, a second series of antisense compounds was designed to target different regions of the rat RANKL RNA, using published sequences (GenBank accession number NM_057149.1, incorporated herein as SEQ ID NO: 18, and GenBank accession number AF425669.1, incorporated herein as SEQ ID NO: 200). […] All cytidine residues are 5-methylcytidines. […] If present, “N.D.” indicates “no data”.

Substance | % INHIB (inhibition of rat RANKL mRNA levels)
ctctgcaatgtaacggtacc (e[5mC]*eT*e[5mC]*eT*eG*d[5mC]*dA*dA*dT*dG*dT*dA*dA*d[5mC]*dG*eG*eT*eA*e[5mC]*e[5mC]; antisense) [ISIS 286652, 2′-MOE gapmer targeted to rat RANKL] | at least 40%
286610 (antisense eA*e[5mC]*eT*eT*eT*dA*dT*dG*dG*dG*dA*dA*d[5mC]*d[5mC]*d[5mC]*eG*eA*eT*eG*eG) [compound 286610] | 34%
tctgttaggatccatctgcg (eT*e[5mC]*eT*eG*eT*dT*dA*dG*dG*dA*dT*d[5mC]*d[5mC]*dA*dT*e[5mC]*eT*eG*e[5mC]*eG; antisense) [ISIS 286596, 2′-MOE gapmer targeted to rat RANKL] | at least 40%
ttttgtacaacgtgggccac (eT*eT*eT*eT*eG*dT*dA*d[5mC]*dA*dA*d[5mC]*dG*dT*dG*dG*eG*e[5mC]*e[5mC]*eA*e[5mC]; antisense) [ISIS 286646, 2′-MOE gapmer targeted to rat RANKL] | at least 40%
acagagcgatgctgcagacc (antisense eA*e[5mC]*eA*eG*eA*dG*d[5mC]*dG*dA*dT*dG*d[5mC]*dT*dG*d[5mC]*eA*eG*eA*e[5mC]*e[5mC]) [ISIS 286589, 2′-MOE gapmer targeted to rat RANKL] | at least 40%
286632 (antisense e[5mC]*eT*eT*eG*eG*dG*dA*dT*dT*dT*dT*dG*dA*dT*dG*e[5mC]*eT*eG*eG*eT) [compound 286632] | 51%
286616 (antisense e[5mC]*eA*eT*eG*eT*dT*dA*dG*dA*dG*dA*dT*d[5mC]*dT*dT*eG*eG*e[5mC]*e[5mC]*e[5mC]) [compound 286616] | 31%
286625 (antisense eG*e[5mC]*eG*eT*eA*d[5mC]*dA*dG*dG*dT*dA*dA*dT*dA*dG*eA*eA*eG*e[5mC]*e[5mC]) [compound 286625] | 50%
286636 (antisense eT*eG*eG*eA*eA*dT*dA*dA*dA*dA*dG*dT*dG*dG*dA*eA*eT*eT*e[5mC]*eA) [compound 286636] | 21%
286588 (antisense eG*e[5mC]*eG*eA*eT*dG*d[5mC]*dT*dG*d[5mC]*dA*dG*dA*d[5mC]*d[5mC]*eA*e[5mC]*e[5mC]*eT*eG) [compound 286588] | 63%
286617 (antisense eA*eG*eT*eT*eT*dT*d[5mC]*d[5mC]*dG*dT*dT*dG*d[5mC]*dT*dT*eA*eA*e[5mC]*eG*eT) [compound 286617] | 52%
286600 (antisense eT*eT*e[5mC]*eT*eG*dT*dA*dG*dA*dA*dG*d[5mC]*dA*dG*d[5mC]*eG*e[5mC]*eG*eT*eG) [compound 286600] | 13%
286606 (antisense eT*eG*eT*eA*eA*dT*dT*d[5mC]*d[5mC]*d[5mC]*dT*dT*dT*dG*d[5mC]*eA*e[5mC]*eG*eG*e[5mC]) [compound 286606] | 37%
caggaacagagcgatgctgc (e[5mC]*eA*eG*eG*eA*dA*d[5mC]*dA*dG*dA*dG*d[5mC]*dG*dA*dT*eG*e[5mC]*eT*eG*e[5mC]; antisense) [ISIS 286590, 2′-MOE gapmer targeted to rat RANKL] | at least 40%
acccttagttttccgttgct (eA*e[5mC]*e[5mC]*e[5mC]*eT*dT*dA*dG*dT*dT*dT*dT*d[5mC]*d[5mC]*dG*eT*eT*eG*e[5mC]*eT; antisense) [ISIS 286618, 2′-MOE gapmer targeted to rat RANKL] | at least 40%
286634 (antisense eA*eA*eT*eT*e[5mC]*dA*dG*dA*dA*dT*dT*d[5mC]*d[5mC]*d[5mC]*dT*eG*eA*e[5mC]*e[5mC]*eA) [compound 286634] | 21%
ggtacttgccgtagtctcgg (antisense eG*eG*eT*eA*e[5mC]*dT*dT*dG*d[5mC]*d[5mC]*dG*dT*dA*dG*dT*e[5mC]*eT*e[5mC]*eG*eG) [ISIS 286586, 2′-MOE gapmer targeted to rat RANKL] | at least 40%
aggttctcagtggcacaggc (eA*eG*eG*eT*eT*d[5mC]*dT*d[5mC]*dA*dG*dT*dG*dG*d[5mC]*dA*e[5mC]*eA*eG*eG*e[5mC]; antisense) [ISIS 286651, 2′-MOE gapmer targeted to rat RANKL] | at least 40%
286603 (antisense eA*eG*eT*e[5mC]*eG*dA*dG*dT*d[5mC]*d[5mC]*dT*dG*d[5mC]*dA*dA*eA*e[5mC]*e[5mC]*eT*eG) [compound 286603] | 59%

Substance | % INHIB (inhibition of rat RANKL mRNA levels)
286631 (antisense eA*eT*eG*e[5mC]*eT*dG*dG*dT*dT*dT*dT*dA*dA*d[5mC]*dG*eA*e[5mC]*eA*eT*eA) [compound 286631] | 35%
286592 (antisense e[5mC]*eT*e[5mC]*eG*eA*dA*dA*dG*dT*dA*d[5mC]*dA*dG*dG*dA*eA*e[5mC]*eA*eG*eA) [compound 286592] | 16%
taggatccatctgcgctcga (eT*eA*eG*eG*eA*dT*d[5mC]*d[5mC]*dA*dT*d[5mC]*dT*dG*d[5mC]*dG*e[5mC]*eT*e[5mC]*eG*eA; antisense) [ISIS 286595, 2′-MOE gapmer targeted to rat RANKL] | at least 40%
tgttggcgtacaggtaatag (eT*eG*eT*eT*eG*dG*d[5mC]*dG*dT*dA*d[5mC]*dA*dG*dG*dT*eA*eA*eT*eA*eG; antisense) [ISIS 286626, 2′-MOE gapmer targeted to rat RANKL] | at least 40%
286623 (antisense eT*eA*eA*eT*eA*dG*dA*dA*dG*d[5mC]*d[5mC]*dA*dT*d[5mC]*dT*eT*eG*eG*eT*eT) [compound 286623] | 16%
atcttggttaacccttagtt (eA*eT*e[5mC]*eT*eT*dG*dG*dT*dT*dA*dA*d[5mC]*d[5mC]*d[5mC]*dT*eT*eA*eG*eT*eT; antisense) [ISIS 286620, 2′-MOE gapmer targeted to rat RANKL] | at least 40%
286608 (antisense e[5mC]*eA*eA*eA*e[5mC]*dG*dG*d[5mC]*dT*dG*dA*dG*d[5mC]*d[5mC]*dT*e[5mC]*eA*eG*eG*e[5mC]) [compound 286608] | 25%
tcacggagtctcagaattct (eT*e[5mC]*eA*e[5mC]*eG*dG*dA*dG*dT*d[5mC]*dT*d[5mC]*dA*dG*dA*eA*eT*eT*e[5mC]*eT; antisense) [ISIS 286601, 2′-MOE gapmer targeted to rat RANKL] | at least 40%
286628 (antisense eA*eG*eA*eT*eA*dG*dT*d[5mC]*d[5mC]*dG*d[5mC]*dA*dG*dG*dT*eA*e[5mC]*eG*e[5mC]*eT) [compound 286628] | 24%
286602 (antisense eA*eA*e[5mC]*e[5mC]*eT*dG*dT*dA*dT*dT*dT*dT*d[5mC]*dA*d[5mC]*eG*eG*eA*eG*eT) [compound 286602] | 48%
286652 (e[5mC]*eT*e[5mC]*eT*eG*d[5mC]*dA*dA*dT*dG*dT*dA*dA*d[5mC]*dG*eG*eT*eA*e[5mC]*e[5mC]; antisense) [compound 286652] | 53%
286642 (antisense eT*e[5mC]*eA*eG*eT*d[5mC]*dT*dA*dT*dG*dT*d[5mC]*dT*dT*dG*eA*eA*e[5mC]*eT*eT) [compound 286642] | 41%
accatcagctgaagatagtc (eA*e[5mC]*e[5mC]*eA*eT*d[5mC]*dA*dG*d[5mC]*dT*dG*dA*dA*dG*dA*eT*eA*eG*eT*e[5mC]; antisense) [ISIS 286629, 2′-MOE gapmer targeted to rat RANKL] | at least 40%
286618 (antisense eA*e[5mC]*e[5mC]*e[5mC]*eT*dT*dA*dG*dT*dT*dT*dT*d[5mC]*d[5mC]*dG*eT*eT*eG*e[5mC]*eT) [compound 286618] | 57%
acttatttgcaggttccagc (eA*e[5mC]*eT*eT*eA*dT*dT*dT*dG*d[5mC]*dA*dG*dG*dT*dT*e[5mC]*e[5mC]*eA*eG*e[5mC]; antisense) [ISIS 286654, 2′-MOE gapmer targeted to rat RANKL] | at least 40%
286596 (antisense eT*e[5mC]*eT*eG*eT*dT*dA*dG*dG*dA*dT*d[5mC]*d[5mC]*dA*dT*e[5mC]*eT*eG*e[5mC]*eG) [compound 286596] | 58%
286650 (antisense eG*eT*eG*eG*e[5mC]*dA*d[5mC]*dA*dG*dG*d[5mC]*d[5mC]*d[5mC]*dA*dG*eG*eA*eG*eT*eT) [compound 286650] | 53%
286624 (antisense e[5mC]*eA*eG*eG*eT*dA*dA*dT*dA*dG*dA*dA*dG*d[5mC]*d[5mC]*eA*eT*e[5mC]*eT*eT) [compound 286624] | 22%
